Reference: patent US10689378B2, “Triazolopyridine compounds and uses thereof” (Novartis AG, priority 2016, dated 2020)
Where two headings read alike, the source gives them in different places.

Columns and labels:
[1] = test system: H3K27 methylation in G401 cell; assay: ELISA (H3K27 methylation) assay in G401 cells; format: cell-based, human; conditions: Homo sapiens
Protocol: Compounds of the present invention were assessed for their ability to inhibit PRC2 activity in a pentameric complex of EZH2, SUZ12, EED, Rbap48 and AEBP in biochemical assays. The ability of compounds of the present invention to inhibit cellular activity of PRC2 was assessed by analysing histone H3 lysine 27 methylation in human cell lines. The ability of compounds of the present invention to inhibit cancers was derived from their ability to modulate activity in human cancer cell lines bearing specific dependence to PRC2 activity to maintain cancerous growth.
ELISA (H3K27 Methylation) Assay
Representative compounds of the present invention were serially and separately diluted 3-fold in DMSO to obtain a total of eight or twelve concentrations. Then the compounds were added to G401 cell cultured in 384-well plate at 1:500 dilution to obtain the highest concentration of 20 μM. The cells were further cultured for 48 h before ELISA procedure.
Histone extraction: Cells, in 384-well plate, were washed with PBS (10×PBS buffer (80 g NaCl (Sigma, S3014), 2 g KCl (Sigma, 60128), 14.4 g Na2HPO4 (Sigma, S5136), 2.4 g KH2PO4 (Sigma, P9791) to 1 L water, pH to 7.4) and lysed with the addition of lysis buffer (0.4N HCl; 45 μL per well). The plate was gently agitated at 4° C. for 30 min. The cell lysate was neutralized with neutralization buffer (0.5 M sodium phosphate dibasic, pH 12.5, 1 mM DTT; 36 μL per well). The plate was agitated to ensure the lysates were well mixed prior to the ELISA protocol.
ELISA protocol: Cell lysates were transferred to the wells of a 384-well plate and the final volume was adjusted to 50 μL per well with PBS. The plate was sealed, centrifuged at 2,000 rpm for 2 min and incubated at 4° C. for about 16 h. The plate was washed with TBST buffer (1×TBS (10×TBS: 24.2 g Tris (Sigma, T6066), 80 g NaCl (Sigma, S3014) to 1 L of water and adjust pH to 7.6 with HCl) with 0.1% Tween-20). Blocking buffer (TBST, 5% BSA; 50 μL per well) was added and the plate was incubated for 1 h at rt. The blocking buffer was removed and primary antibody was added (30 μL per well). The following dilutions were performed with blocking buffer: for anti-H3K27me3 antibody (Cell Signaling Technology, #9733), dilution was 1:1000; for anti-H3K27me2 antibody (Cell Signaling Technology, #9288), dilution was 1:100; for anti-H3 antibody (Abcam, Cat #24834), dilution was 1:1000. The primary antibody was incubated in the plate at rt for 1 h. The wells were washed with TBST and incubated with secondary antibody for 1 h at rt. For secondary antibodies, the following dilutions were carried out with blocking buffer: anti-rabbit antibody (Jackson ImmunoResearch, #111-035-003), dilution was 1:2000; and anti-mouse antibody (Cell signaling technology, #7076), dilution was 1:1000. After 1 h of incubation at rt, the wells were washed with TBST. ECL substrate (Pierce, #34080) was added at 30 μL per well and the plates were centrifuged at 2,000 rpm for 2 min. The signal was read using a PerkinElmer Envision Reader. The H3K27 methylation readouts were normalized using H3 signal and then percentage inhibition was calculated against the samples treated with DMSO. The data were then fit to a dose response curve using the program Helios to get the IC50 values of the test compound.

EED (1-441)-His protein = biological target: T1, EED (1-441)-His protein (Homo sapiens, UniProt O75530); assay: EED-H3K27Me3 peptide competition binding assay by AlphaScreen
T1 construct: 30 nM EED (1-441)-His protein
T1 sequence (O75530 whole entry): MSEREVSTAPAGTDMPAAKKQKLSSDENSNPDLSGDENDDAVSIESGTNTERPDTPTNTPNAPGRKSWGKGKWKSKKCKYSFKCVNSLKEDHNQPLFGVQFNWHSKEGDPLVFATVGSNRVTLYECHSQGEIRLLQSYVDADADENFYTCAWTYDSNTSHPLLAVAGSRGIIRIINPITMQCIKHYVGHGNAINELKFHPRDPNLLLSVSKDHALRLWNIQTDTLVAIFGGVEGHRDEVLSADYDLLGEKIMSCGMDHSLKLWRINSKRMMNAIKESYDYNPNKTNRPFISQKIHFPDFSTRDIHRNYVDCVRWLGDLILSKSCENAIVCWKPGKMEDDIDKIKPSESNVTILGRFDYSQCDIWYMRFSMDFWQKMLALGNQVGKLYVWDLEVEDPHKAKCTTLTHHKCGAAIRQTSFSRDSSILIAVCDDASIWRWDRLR
Protocol: EED-H3K27Me3 Peptide Competition Binding Assay by AlphaScreen (α-Screen)
To assess the compounds' potency in the EED-H3K27Me3 competition binding assay, compounds were serially diluted 3-fold in DMSO to obtain a total of twelve concentrations. Then compounds at each concentration (75 nL of each) were transferred by Mosquito into a 384-well Perkin Elmer ProxiPlate 384 plus plates. 8 uL of solutions containing 30 nM EED (1-441)-His protein and 15 nM biotin-H3K27Me3 (19-33) peptide in the buffer (25 mM HEPES, pH 8, 0.02% Tween-20, 0.5% BSA) were added to the wells and then incubated with compound for 20 min. AlphaScreen detection beads mix was prepared immediately before use by mixing nickel chelate acceptor beads and streptavidin donor beads in a 1:1 ratio (Perkin Elmer, Product No. 6760619C/M/R) into the buffer described above. Then 4 μL of detection beads mix was added to the plate and incubate in the dark at the rt for 1 h. The final concentration of donor and acceptor beads was 10 μg/mL for each. Plates were read on EnVision (PerkinElmer) using the AlphaScreen setting adapted for optimal signal detection with a 615 nm filter, after sample excitation at 680 nm. The emission signal at 615 nm was used to quantify compounds inhibition. AlphaScreen signals were normalized based on the reading coming from the positive (maximum signal control) and negative controls (minimum signal control) to give percentage of activities left. The data were then fit to a dose response equation using the program Helios (Novartis) to get the IC50 values. Helios is a Novartis in-house assay data analysis software using the methods described by Normolle, D. P., Statistics in Medicine, 12:2025-2042 (1993); Formenko, I. et al, Computer Methods and Programs in Biomedicine, 82, 31-37 (2006); Sebaugh, J. L., Pharmaceutical Statistics, 10:128-134 (2011); Kelly, C. et al., Biometrics, 46(4):1071-1085 (1990); and Kahm, M. et al., Journal of Statistical Software, 33 (7): (2010) (grofit: Fitting Biological Growth Curves with R, pages 1-21, available at http://www.jstatsoft.org/).

[2] = G-401, H3K27 methylation ELISA, read-out: (c) IC50 ELISA Qualified
[3] = EED-H3K27Me3 peptide competition, AlphaScreen, read-out: (a) IC50 EED Alphascreen binding Qualified
[4] = G-401, read-out: (c) IC50, ELISA Qualified
[5] = read-out: (a) IC50, EED Alphascreen binding Qualified
[6] = G-401, read-out: (c) IC50 ELISA Qualified
[7] = read-out: (a) IC50 EED Alphascreen binding Qualified

IC50 [1, 2] | IC50 (EED (1-441)-His protein; [3]) | IC50 [1, 4] | IC50 (EED (1-441)-His protein; [5]) | SMILES | further results
0.14 µM | 0.105 µM | – | – | COc1cccc(F)c1CNc1ccc(-c2cc(F)c(N)cc2F)c2nncn12 [Example 208, 8-(4-amino-2,5-difluorophenyl)-N-(2-fluoro-6-methoxybenzyl)-[1,2,4]triazolo[4,3-a]pyridin-5-amine] | –
0.0762 µM | 0.119 µM | – | – | COc1cccc(F)c1CNc1ccc(-c2ccc(C#N)cc2C)c2nncn12 [Example 209, 4-(5-((2-fluoro-6-methoxybenzyl)amino)-[1,2,4]triazolo[4,3-a]pyridin-8-yl)-3-methylbenzonitrile] | –
0.115 µM | 0.112 µM | – | – | COc1ccc(F)c(F)c1CNc1ccc(-c2cccnc2C)c2nncn12 [Example 286, N-(2,3-difluoro-6-methoxybenzyl)-8-(2-methylpyridin-3-yl)-[1,2,4]triazolo[4,3-a] pyridin-5-amine] | –
0.455 µM | 0.177 µM | – | – | COc1ccc(F)c(F)c1CNc1ccc(-c2cccnc2)c2nncn12 [Example 242, N-(2,3-difluoro-6-methoxybenzyl)-8-(pyridin-3-yl)-[1,2,4]triazolo[4,3-a]pyridin-5-amine] | –
0.0958 µM | 0.143 µM | – | – | COc1cccc(F)c1CNc1ccc(-c2cncc(OCCS(C)(=O)=O)c2)c2nncn12 [Example 204, N-(2-fluoro-6-methoxybenzyl)-8-(5-(2-(methylsulfonyl)ethoxy)pyridin-3-yl)-[1,2,4]triazolo[4,3-a] pyridin-5-amine] | –
0.0716 µM | 0.0716 µM | – | – | COc1cc(C)c(-c2ccc(NCc3c(F)cc(F)cc3OC)n3cnnc23)cn1 [Example 318, N-(2,4-difluoro-6-methoxybenzyl)-8-(6-methoxy-4-methylpyridin-3-yl)-[1,2,4] triazolo[4,3-a]pyridin-5-amine] | –
0.0154 µM | 0.0169 µM | – | – | COc1cccc(F)c1CNc1ccc(-c2ccc(Cl)nc2C)c2nncn12 [Example 263, 8-(6-chloro-2-methylpyridin-3-yl)-N-(2-fluoro-6-methoxybenzyl)-[1,2,4]triazolo[4,3-a] pyridin-5-amine] | –

Second part, the compound before the results:

SMILES | IC50 [1, 2] | IC50 (EED (1-441)-His protein; [3]) | IC50 [1, 4] | IC50 (EED (1-441)-His protein; [5]) | further results
COc1ccccc1CNc1ccc(-c2cncc(S(C)(=O)=O)c2)c2nncn12 [Example 95, N-(2-methoxybenzyl)-8-(5-(methylsulfonyl)pyridin-3-yl)-[1,2,4]triazolo[4,3-a] pyridin-5-amine] | – | – | 0.164 µM | 0.177 µM | –
COc1ccc(F)cc1CNc1ccc(-c2ccncc2)c2nncn12 [Example 117, N-(5-fluoro-2-methoxybenzyl)-8-(pyridin-4-yl)-[1,2,4]triazolo[4,3-a]pyridin-5-amine] | – | – | 0.895 µM | 0.846 µM | –
COc1ccccc1CNc1ccc(-c2ccc(CN3CCCC3=O)cc2)c2nncn12 [Example 55, 1-(4-(5-((2-methoxybenzyl)amino)-[1,2,4]triazolo[4,3-a]pyridin-8-yl)benzyl) pyrrolidin-2-one] | – | – | 0.0441 µM | 0.0151 µM | –
COc1ccc(F)c(CNc2ccc(-c3ccncc3)c3nncn23)c1 [Example 99, N-(2-fluoro-5-methoxybenzyl)-8-(pyridin-4-yl)-[1,2,4]triazolo[4,3-a] pyridin-5-amine] | – | – | 0.385 µM | 0.255 µM | –
COc1cc(F)cc(F)c1CNc1c(F)cc(-c2cccnc2C)c2nncn12 [Example 320, N-(2,4-difluoro-6-methoxybenzyl)-6-fluoro-8-(2-methylpyridin-3-yl)-[1,2,4]triazolo [4,3-a]pyridin-5-amine] | 0.434 µM | 0.425 µM | – | – | –
COc1ccc(F)cc1CNc1ccc(-c2ccc(S(=O)(=O)C3CCN(C)CC3)cc2)c2nncn12 [Example 135, N-(5-fluoro-2-methoxybenzyl)-8-(4-((1-methylpiperidin-4-yl)sulfonyl)phenyl)-[1,2,4]triazolo[4,3-a] pyridin-5-amine] | – | – | 0.279 µM | 0.444 µM | –
COc1c(F)cccc1CNc1ccc(-c2ccc(S(C)(=O)=O)cc2)c2nncn12 [Example 119, N-(3-fluoro-2-methoxybenzyl)-8-(4-(methylsulfonyl)phenyl)-[1,2,4]triazolo[4,3-a]pyridin-5-amine] | – | – | 5.14 µM | 0.677 µM | –
COc1cc(F)ccc1CNc1ccc(-c2ccc(S(N)(=O)=O)cc2)c2nncn12 [Example 89, 4-(5-((4-fluoro-2-methoxybenzyl)amino)-[1,2,4]triazolo[4,3-a]pyridin-8-yl)benzenesulfonamide] | – | – | 1.48 µM | 0.132 µM | –
COc1c(F)cc(F)cc1CNc1ccc(-c2ccc(CN(C)C)cc2)c2nncn12 [Example 146, N-(3,5-difluoro-2-methoxybenzyl)-8-(4-((dimethylamino)methyl)phenyl)-[1,2,4]triazolo[4,3-a] pyridin-5-amine] | – | – | 4.11 µM | 1.98 µM | –
COc1c(F)cccc1CNc1ccc(-c2ccc(S(C)(=O)=O)nc2)c2nncn12 [Example 136, N-(3-fluoro-2-methoxybenzyl)-8-(6-(methylsulfonyl)pyridin-3-yl)-[1,2,4]triazolo[4,3-a] pyridin-5-amine] | – | – | 11.4 µM | 2.88 µM | –
COc1ccccc1CNc1ccc(-c2cncnc2)c2nncn12 [Example 58, N-(2-methoxybenzyl)-8-(pyrimidin-5-yl)-[1,2,4] triazolo[4,3-a]pyridin-5-amine] | – | – | 0.0663 µM | 0.0598 µM | –
COc1nccc(N)c1CNc1ccc(-c2cccnc2C)c2nncn12 [Example 371, N-((4-amino-2-methoxypyridin-3-yl)methyl)-8-(2-methylpyridin-3-yl)-[1,2,4] triazolo[4,3-a]pyridin-5-amine] | – | – | – | – | IC50 [1, 6]: 0.0927 µM; IC50 (EED (1-441)-His protein; [7]): 0.102 µM
CN(C)Cc1ccc(-c2ccc(NCc3ccc(F)cc3)n3cnnc23)cc1 [Example 37, 8-(4-((dimethylamino)methyl)phenyl)-N-(4-fluorobenzyl)-[1,2,4]triazolo[4,3-a] pyridin-5-amine] | – | – | 1.8 µM | 1.52 µM | –
COc1cccnc1CNc1ccc(-c2cccnc2C)c2nncn12 [Example 347, N-((3-methoxypyridin-2-yl)methyl)-8-(2-methylpyridin-3-yl)-[1,2,4]triazolo[4,3-a] pyridin-5-amine] | – | – | – | – | IC50 [1, 6]: 0.771 µM; IC50 (EED (1-441)-His protein; [7]): 0.791 µM
